The record followed here is US20070243548A1, “Calumenin-directed diagnostics and therapeutics for cancer and chemotherapeutic drug resistance” (priority 2006, published 2007).

The test system of one data set is calumenin. Description: Immunoblot of calumenin expression after siRNA transfection of MCF-7 cells. Format: cell-based, human. Particulars: compared to mock and control siRNA, FIG. 2. From the text: To establish the importance of calumenin to the expression of the drug-resistant phenotype in MCF-7 cell lines, calumenin expression was silenced using RNAi. Briefly, the following siRNA duplexes targeting the human calumenin mRNA were designed and purchased either from Ambion (Austin, Tex.) or Invitrogen (Carlsbad, Calif.). The siRNA duplex sequences corresponding to nucleotides […] (REFSEQ ID NUMBER: NM_001428) targeting the start of the calumenin mRNA transcript were:
For a typical siRNA transfection, […] of the annealed siRNA duplex was mixed with 1.4 ml of Opti-MEM reagent (Invitrogen). In another tube, […] of Oligofectamine reagent (Invitrogen, Carlsbad, Calif.) was mixed with […] of Opti-MEM. The two solutions were combined and mixed gently by inversion and incubated for 20 min. at RT. […]
To determine the ability of cells to proliferate after they were transfected with […] or control siRNAs as indicated above, the cells were seeded the next day in a 96-well plate at 5×10^3 cells/well in quadruplicate. […] The resulting fluorescence was measured in a Wallac microplate reader (PerkinElmer, Inc., Boston, Mass.) using a 535 nm filter. […] The number of cells was determined by extrapolation from a standard curve.
A general note: A western blot detects proteins with antibodies after separation by electrophoresis.

The next data set deals with MCF-7/ADR xenografts. The data set can be described thus: Mammary adenocarcinoma MCF-7/ADR xenografts in nude mice. Format: in vivo. Particulars: adenocarcinomas, vs mice treated with control siRNA. As to the method: In further studies, the efficacy of a calumenin-targeted therapeutic in treating an MDR mammary adenocarcinoma cells (MCF/AR) is assessed. Briefly, male […] nude mice 5 to 7 weeks old, weighing 18 g to 22 g, are used for the MCF-7/ADR xenografts. Mice receive a subcutaneous (s.c.) injection of the cells using 5×10^5 cells/inoculation under the shoulder. When the s.c. tumor is approximately 5.5 mm in size, mice are randomized into treatment groups of 4 including controls and groups receiving taxol or doxorubicin, alone (4 mg/kg), intraperitoneally (i.p.) every 2 days, calumenin siRNA alone (3 μg daily for 16 days), or both taxol and calumenin siRNA (3 μg daily for 16 days for each treatment). […] The animal's weight is measured every 4 days. Tumor growth starting on the first day of treatment is measured and the volume of the xenograft is monitored every 4 days. […] Tumor tissue is excised from the mice and its weight is measured. […]
In further studies, the efficacy of a calumenin-targeted therapeutic in treating a mammary adenocarcinoma cells (MCF-7) is assessed. […] The animal's weight is measured every 4 days. Tumor growth starting on the first day of treatment is measured and the volume of the xenograft is monitored every 4 days. […] Tumor tissue is excised from the mice and its weight is measured. […]

Turning to “Calumenin siRNA: siRNA duplex targeting human calumenin mRNA; sense 5′-GAAGGACCGUGUACAUCAU-3′ (SEQ ID NO: 1), anti-sense 5′-AUGAUGUACACGGUCCUUC-3′ (SEQ ID NO: 2), 3′TT overhangs (3' TT overhangs on both strands, further chemistry not given here)”, the calumenin expression result in the data set with calumenin is given as “significantly decreased”. Also, in the data set with MCF-7/ADR xenografts, the “total cell number in tumors” value is “lower”. The tumors by weight result in the data set on MCF-7/ADR xenografts (3 μg siRNA daily for 16 days) is given as “smaller”.
